According to patent US10689425B2, “Collagen-binding synthetic peptidoglycans, preparation, and methods of use” (Purdue Research Foundation, priority 2008, dated 2020):

Columns and labels:
[1] = target: T1, collagen type I gels (Bos taurus, UniProt P02453+P02465); assay: Viscoelastic characterization of collagen type I gels (rheometer); settings: 5:1, 10:1 and 30:1 collagen:additive; 0.1-1.0 Hz, 1.0 Pa
T1 construct: purchased Inamed, Freemont, Calif; (Nutragen)
Method: The PTFE printing restricted gels to the 20 mm diameter wettable region. Gels were formed in a humidified incubator at 37° C. overnight prior to mechanical testing. Slides were clamped on the rheometer stage of a AR-G2 rheometer with 20 mm stainless steel parallel plate geometry (TA Instruments, New Castle, Del.), and the 20 mm stainless steel parallel plate geometry was lowered to a gap distance of 600 μm using a normal force control of 0.25N to avoid excessive shearing on the formed gel. An iterative process of stress and frequency sweeps was performed on gels of collagen alone to determine the linear range. All samples were also tested over a frequency range from 0.1 Hz to 1.0 Hz and a controlled stress of 1.0 Pa. Statistical analysis using Design Expert software ([…], Minneapolis, Minn.) was performed at each frequency and a 5-way ANOVA used to compare samples. […] Viscoelastic characterization was performed as described in EXAMPLE 17 on gels formed with varying ratios of collagen to additive (treatment).

[2] = test system: Human coronary artery smooth muscle cells (HCA SMC); assay: Gel compaction by cells seeded in collagen gels; assay type: cell-based; settings: Day 7
Method: Human coronary artery smooth muscle cells (HCA SMC) (Cascade Biologics) were cultured in growth medium (Medium 231 supplemented with smooth muscle growth factor). Cells from passage 3 were used for all experiments. Differentiation medium (Medium 231 supplemented with 1% FBS and 1× pen/strep) was used for all experiments unless otherwise noted.
Collagen gels were prepared with each additive as described with the exception that the 1×PBS example addition was omitted to accommodate the addition of cells in media. After incubating on ice for 30 min, HCA SMCs in differentiation medium were added to the gel solutions to a final concentration of 1×10^6 cells/mL. Gels were formed in quadruplicate in 48-well non-tissue culture treated plates (Costar) for 6 hrs before adding 500 μL/well differentiation medium. Gels were freed from the well edges after 24 hrs. Medium was changed every 2-3 days and images for compaction were taken at the same time points using a Gel Doc System (Bio-Rad). The cross-sectional area of circular gels correlating to degree of compaction was determined using ImageJ software (NIH). Gels containing no cells were used as a negative control and cells in collagen gels absent additive were used as a positive control. By day 10 all gels had compacted to approximately 10% of the original gel area, and differences between additives were small.

[3] = test system: HCA SMCs; assay: Elastin content by Fastin elastin assay; assay type: cell-based, Human; settings: gels cultured for 10 days
Method: Differentiation medium was changed every three days and gels were cultured for 10 days. […] Gels were rinsed in 1×PBS overnight to remove serum protein, and gels were tested for elastin content using the Fastin elastin assay per manufacturers protocol (Biocolor, County […].). Briefly, gels were solubilized in 0.25 M oxalic acid by incubating at 100° C. for 1 hr. Elastin was precipitated and samples were then centrifuged at 11,000×g for 10 min. The solubilized collagen supernatant was removed and the elastin pellet was stained by Fastin Dye Reagent for 90 min at room temperature. Samples were centrifuged at 11,000×g for 10 min and unbound dye in the supernatant was removed. Dye from the elastin pellets was released by the Fastin Dye Dissociation Reagent, and 100 μL samples were transferred to a 96-well plate (Costar). Absorbance was measured at 513 nm, and elastin content was calculated from an α-elastin standard curve.

T1 sequence (P02453 162-1217 limits assumed): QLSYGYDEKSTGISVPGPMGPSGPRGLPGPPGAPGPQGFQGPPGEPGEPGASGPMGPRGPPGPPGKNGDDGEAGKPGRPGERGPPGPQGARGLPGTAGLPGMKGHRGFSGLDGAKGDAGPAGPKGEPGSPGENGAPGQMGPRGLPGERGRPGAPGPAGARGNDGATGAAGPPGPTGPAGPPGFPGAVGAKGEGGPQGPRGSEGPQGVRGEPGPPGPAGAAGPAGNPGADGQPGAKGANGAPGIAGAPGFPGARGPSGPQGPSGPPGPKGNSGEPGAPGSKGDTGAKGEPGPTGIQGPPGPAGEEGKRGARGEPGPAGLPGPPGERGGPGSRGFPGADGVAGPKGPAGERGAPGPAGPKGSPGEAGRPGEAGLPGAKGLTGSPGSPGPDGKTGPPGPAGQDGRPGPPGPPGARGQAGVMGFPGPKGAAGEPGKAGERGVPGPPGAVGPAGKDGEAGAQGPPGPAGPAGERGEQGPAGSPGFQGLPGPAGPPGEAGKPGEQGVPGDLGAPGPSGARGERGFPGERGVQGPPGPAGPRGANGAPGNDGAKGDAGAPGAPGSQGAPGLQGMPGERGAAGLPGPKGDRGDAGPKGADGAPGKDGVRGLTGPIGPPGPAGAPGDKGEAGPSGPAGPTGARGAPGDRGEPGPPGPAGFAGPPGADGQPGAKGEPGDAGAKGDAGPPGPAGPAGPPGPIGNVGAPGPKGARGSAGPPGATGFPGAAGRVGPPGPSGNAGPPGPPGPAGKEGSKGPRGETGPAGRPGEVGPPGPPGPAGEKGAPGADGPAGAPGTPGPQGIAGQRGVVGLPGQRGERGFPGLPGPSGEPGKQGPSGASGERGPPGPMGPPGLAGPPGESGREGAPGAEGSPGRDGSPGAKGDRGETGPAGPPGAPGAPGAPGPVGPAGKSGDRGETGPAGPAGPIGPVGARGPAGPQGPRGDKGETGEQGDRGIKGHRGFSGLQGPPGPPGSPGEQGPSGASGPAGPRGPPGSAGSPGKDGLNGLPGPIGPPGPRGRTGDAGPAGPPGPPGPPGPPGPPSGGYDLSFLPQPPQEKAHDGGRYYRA
T1 sequence (P02465 80-1117 limits assumed): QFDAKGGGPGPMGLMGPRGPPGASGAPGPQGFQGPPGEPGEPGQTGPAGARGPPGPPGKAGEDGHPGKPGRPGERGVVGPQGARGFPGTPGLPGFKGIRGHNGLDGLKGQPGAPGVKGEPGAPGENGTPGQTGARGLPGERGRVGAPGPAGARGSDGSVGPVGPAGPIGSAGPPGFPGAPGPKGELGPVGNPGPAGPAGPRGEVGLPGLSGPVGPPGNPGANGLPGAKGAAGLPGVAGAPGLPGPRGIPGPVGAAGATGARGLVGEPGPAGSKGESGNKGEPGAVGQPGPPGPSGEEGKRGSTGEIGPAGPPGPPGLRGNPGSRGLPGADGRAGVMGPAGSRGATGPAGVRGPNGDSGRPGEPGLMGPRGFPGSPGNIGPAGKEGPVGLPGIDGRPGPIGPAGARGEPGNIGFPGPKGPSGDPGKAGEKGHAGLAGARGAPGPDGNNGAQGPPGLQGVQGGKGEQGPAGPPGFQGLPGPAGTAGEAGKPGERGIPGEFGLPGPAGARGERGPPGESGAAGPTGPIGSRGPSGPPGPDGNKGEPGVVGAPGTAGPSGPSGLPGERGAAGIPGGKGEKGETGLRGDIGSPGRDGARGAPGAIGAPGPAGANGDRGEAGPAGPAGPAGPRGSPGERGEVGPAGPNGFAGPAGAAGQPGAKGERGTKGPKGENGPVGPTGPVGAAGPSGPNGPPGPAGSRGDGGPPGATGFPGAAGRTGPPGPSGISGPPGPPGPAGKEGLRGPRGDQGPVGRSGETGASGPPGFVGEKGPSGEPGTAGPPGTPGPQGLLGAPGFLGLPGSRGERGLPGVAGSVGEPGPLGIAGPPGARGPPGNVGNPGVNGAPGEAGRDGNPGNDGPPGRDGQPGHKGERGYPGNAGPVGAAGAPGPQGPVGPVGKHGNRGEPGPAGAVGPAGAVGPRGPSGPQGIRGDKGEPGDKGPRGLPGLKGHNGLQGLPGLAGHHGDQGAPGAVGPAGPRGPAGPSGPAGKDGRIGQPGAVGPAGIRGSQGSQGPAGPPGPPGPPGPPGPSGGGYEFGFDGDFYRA

dermatan sulfate [DS] was tested, and the “Stiffness of collagen gel (storage modulus G')” value [1] was “increase the stiffness of the resulting collagen gel over untreated collagen”, the “Gel compaction, statistical significance” value [2] was “significant compared to collagen” and the Elastin production [3] was “significantly decreased elastin production over untreated collagen”.
